Results reported in publication PMC8632880, “Mitochondrial proteome of mouse oocytes and cisplatin-induced shifts in protein profile” (Acta Pharmacologica Sinica, 2021).

Molecular target: T1, GST-HS90A (Mus musculus, UniProt P07901)
T1 construct: gene Hsp90aa1; mouse Hsp90aa1 coding region in pGEX-4T-1, N-terminal GST fusion (tag kept), expressed in E. coli, purified, RED-NHS labelled
Assay: microscale thermophoresis, RED-NHS labelled protein
Assay type: binding

Compound `[NH2][Pt]([NH2])([Cl])[Cl]` [cisplatin] has a Kd of 5.47 ± 0.2 µM.
